System: P. falciparum Dd2
Assay: Activity against the Dd2 strain of P. falciparum (SYBR Green I, 72 h)
Type: cell-based
Conditions: P. falciparum Dd2, 72 h incubation
Experimental: The Dd2 strain of P. falciparum was cultured in complete medium (RPMI with L-glutamine, 4.3% heat-inactivated O-positive human serum, 2.08 mg/ml albumax, 0.013 mg/ml hypoxanthine, 1.17 mg/ml glucose, 0.18% NaHCO3, 0.031 M Hepes, 2.60 mM NaOH, and 0.043 mg/ml gentamicin) until the parasitemia reached 3-8%. Parasitemia was determined by checking at least 500 red blood cells from a Giemsa-stained blood smear. The Dd2 cultures along with tested O-positive red blood cells were centrifuged at room temperature at 2,000 rpm for 5 minutes using an Eppendorf centrifuge 5810R with an A-4-81 rotor. The medium was aspirated off. For the compound screening, a parasite dilution at a 1% parasitemia and 1.0% hematocrit was created with screening medium (RPMI with L-glutamine, 4.16 mg/ml albumax II, 0.013 mg/ml hypoxanthine, 1.73 mg/ml glucose, 0.18% NaHCO3, 0.031 M Hepes, 2.60 mM NaOH, and 0.043 mg/ml gentamicin). The suspension was gassed with 93% nitrogen, 4% carbon dioxide, and 3% oxygen and placed at 37° C. until needed. Using a liquid dispenser, 20 μl of screening medium was dispensed into 384-well, black, clear-bottom plates. With a PinTool, 100 nl of compounds dissolved in DMSO was transferred into the assay plates along with control compound (mefloquine). Next, 30 μl of the parasite suspension in screening medium was then dispensed into the assay plates such that the final parasitemia was 1% and the final hematocrit was 1.0%. Final concentration of DMSO was 0.125%. Mefloquine at a final concentration of 20 μM and DMSO at a final concentration of 0.125% were used within the assay plates to serve as background and baseline controls, respectively. The assay plates were transferred to incubators (93% nitrogen, 4% carbon dioxide, and 3% oxygen during the 72 h incubation at 37° C.). Ten microliters of detection reagent consisting of 10×SYBR Green I (Invitrogen; supplied in 10,000× concentration) in lysis buffer (20 mM Tris-HCl, 5 mM EDTA, 0.16% Saponin wt/vol, 1.6% Triton X vol/vol) was dispensed into the assay plates. For optimal staining, the assay plates were left at room temperature for 24 h in the dark. The assay plates were read by using an Envision (PerkinElmer) reader, with 505 dichroic mirrors with 485-nm excitation and 530-nm emission settings, and the plate reads were from the bottom.
By following the above-described protocol, the 50% effective concentration (EC50) for compounds 1-95 was measured against P. falciparum Dd2 and the results are shown in Table 2: […]

Compound	EC50
O=C(Nc1ccc(F)cc1)N1CCCCN2[C@H](CO)[C@H](c3ccc(C#Cc4ccccc4)cc3)[C@@H]2C1 [Compound 11, (8R,9R,10S)-N-(4-fluorophenyl)-10-(hydroxymethyl)-9-(4-(phenylethynyl)phenyl)-1,6-diazabicyclo[6.2.0] decane-6-carboxamide]	17 nM

Same assay, conditions: Plasmodium falciparum, DD2, 72 h, P. falciparum Dd2, 72 h incubation

Compound	EC50
COc1cccc(CN2CCCCN3[C@H](CO)[C@@H](c4ccc(C#Cc5cccnc5)cc4)[C@@H]3C2)c1 [Compound 1, ((8R,9S,10S)-6-(3-methoxybenzyl)-9-(4-(pyridin-3-ylethynyl)phenyl)-1,6-diazabicyclo[6.2.0]decan-10-yl)methanol]	427 nM
O=C(Nc1ccccc1)N1CCCCN2[C@H](CO)[C@H](c3ccc(C#Cc4cccnc4)cc3)[C@@H]2C1 [Compound 2, (8R,9R,10S)-10-(hydroxymethyl)-N-phenyl-9-(4-(pyridin-3-ylethynyl)phenyl)-1,6-diazabicyclo[6.2.0] decane-6-carboxamide]	165 nM
COc1ccccc1NC(=O)N1CCCCN2[C@H](CO)[C@H](c3ccc(C#Cc4ccccc4)cc3)[C@@H]2C1 [Compound 3, (8R,9R,10S)-10-(hydroxymethyl)-N-(2-methoxyphenyl)-9-(4-(phenylethynyl)phenyl)-1,6-diazabicyclo[6.2.0] decane-6-carboxamide]	118 nM
COc1ccc(NC(=O)N2CCCCN3[C@H](CO)[C@H](c4ccc(C#Cc5ccccn5)cc4)[C@@H]3C2)cc1 [Compound 4, (8R,9R,10S)-10-(hydroxymethyl)-N-(4-methoxyphenyl)-9-(4-(pyridin-2-ylethynyl)phenyl)-1,6-diazabicyclo[6.2.0] decane-6-carboxamide]	131 nM
O=S(=O)(c1ccc(F)cc1)N1CCCCN2[C@@H](CO)[C@@H](c3ccc(C4=CCCCC4)cc3)[C@@H]2C1 [Compound 5, ((8R,9S,10R)-6-((4-fluorophenyl)sulfonyl)-9-(2′,3′,4′,5′-tetrahydro-[1,1′-biphenyl]-4-yl)-1,6-diazabicyclo[6.2.0]decan-10-yl)methanol]	1070 nM
O=C(Nc1ccccc1)N1CCCCN2[C@@H](CO)[C@H](c3ccc(C#Cc4cccnc4)cc3)[C@@H]2C1 [Compound 6, (8R,9R,10R)-10-(hydroxymethyl)-N-phenyl-9-(4-(pyridin-3-ylethynyl)phenyl)-1,6-diazabicyclo[6.2.0] decane-6-carboxamide]	552 nM
Cc1cccc(-c2ccc([C@H]3[C@H]4CN(S(=O)(=O)c5cccc(C)c5)CCCCN4[C@H]3CO)cc2)c1 [Compound 7, ((8S,9S,10R)-9-(3′-methyl-[1,1′-biphenyl]-4-yl)-6-(m-tolylsulfonyl)-1,6-diazabicyclo[6.2.0]decan-10-yl)methanol]	1190 nM
COc1ccc(C#Cc2ccc([C@@H]3[C@@H](CO)N4CCCCN(C(=O)Nc5cccc(F)c5)C[C@H]34)cc2)cc1 [Compound 8, (8S,9S,10S)-N-(3-fluorophenyl)-10-(hydroxymethyl)-9-(4-((4-methoxyphenyl)ethynyl)phenyl)-1,6-diazabicyclo[6.2.0] decane-6-carboxamide]	83 nM
OC[C@H]1[C@@H](c2ccc(-c3ccc(F)cc3)cc2)[C@@H]2CN(CCC(F)(F)F)CCCCN12 [Compound 9, ((8R,9S,10R)-9-(4′-fluoro-[1,1′-biphenyl]-4-yl)-6-(3,3,3-trifluoropropyl)-1,6-diazabicyclo[6.2.0]decan-10-yl)methanol]	518 nM
O=C(Nc1ccccc1F)N1CCCCN2[C@@H](CO)[C@H](c3ccc(C#Cc4cccnc4)cc3)[C@@H]2C1 [Compound 10, (8R,9R,10R)-N-(2-fluorophenyl)-10-(hydroxymethyl)-9-(4-(pyridin-3-ylethynyl)phenyl)-1,6-diazabicyclo[6.2.0] decane-6-carboxamide]	949 nM
O=C(Nc1ccccc1F)N1CCCCN2[C@@H](CO)[C@@H](c3ccc(C#Cc4cccnc4)cc3)[C@@H]2C1 [Compound 12]	950 nM
O=C(Nc1cccc(F)c1)N1CCCCN2[C@H](CO)[C@H](c3ccc(C#Cc4ccccc4)cc3)[C@@H]2C1 [Compound 13, (8R,9R,10S)-N-(3-fluorophenyl)-10-(hydroxymethyl)-9-(4-(phenylethynyl)phenyl)-1,6-diazabicyclo[6.2.0] decane-6-carboxamide]	44 nM
COc1ccccc1NC(=O)N1CCCCN2[C@H](CO)[C@H](c3ccc(C#CC4CC4)cc3)[C@H]2C1 [Compound 14, (8S,9R,10S)-9-(4-(cyclopropylethynyl)phenyl)-10-(hydroxymethyl)-N-(2-methoxyphenyl)-1,6-diazabicyclo[6.2.0] decane-6-carboxamide]	1200 nM
COc1ccccc1C#Cc1ccc([C@@H]2[C@@H](CO)N3CCCCN(CCC(F)(F)F)C[C@H]23)cc1 [Compound 15, ((8S,9S,10S)-9-(4-((2-methoxyphenyl)ethynyl)phenyl)-6-(3,3,3-trifluoropropyl)-1,6-diazabicyclo[6.2.0]decan-10-yl)methanol]	254 nM
OC[C@H]1[C@@H](c2ccc(-c3cccc(F)c3)cc2)[C@@H]2CN(CCC(F)(F)F)CCCCN12 [Compound 16, ((8R,9S,10R)-9-(3′-fluoro-[1,1′-biphenyl]-4-yl)-6-(3,3,3-trifluoropropyl)-1,6-diazabicyclo[6.2.0]decan-10-yl)methanol]	618 nM
COc1cccc(CN2CCCCN3[C@H](CO)[C@@H](c4ccc(C#Cc5cccnc5)cc4)[C@H]3C2)c1 [Compound 17, ((8S,9S,10S)-6-(3-methoxybenzyl)-9-(4-(pyridin-3-ylethynyl)phenyl)-1,6-diazabicyclo[6.2.0]decan-10-yl)methanol]	560 nM
COc1ccc(C#Cc2ccc([C@@H]3[C@@H](CO)N4CCCCN(C(=O)Nc5ccccc5F)C[C@H]34)cc2)cc1 [Compound 18, (8S,9S,10S)-N-(2-fluorophenyl)-10-(hydroxymethyl)-9-(4-((4-methoxyphenyl)ethynyl)phenyl)-1,6-diazabicyclo[6.2.0] decane-6-carboxamide]	800 nM
CC(C)CC#Cc1ccc([C@@H]2[C@H](CO)N3CCCCN(S(=O)(=O)Cc4ccccc4)C[C@@H]23)cc1 [Compound 19, ((8R,9S,10R)-6-(benzylsulfonyl)-9-(4-(4-methylpent-1-yn-1-yl)phenyl)-1,6-diazabicyclo[6.2.0]decan-10-yl)methanol]	805 nM
COCC#Cc1ccc([C@@H]2[C@H](CO)N3CCCCN(S(=O)(=O)c4ccc(OC)cc4)C[C@@H]23)cc1 [Compound 20, ((8R,9S,10R)-6-((4-methoxyphenyl)sulfonyl)-9-(4-(3-methoxyprop-1-yn-1-yl)phenyl)-1,6-diazabicyclo[6.2.0]decan-10-yl)methanol]	1330 nM
OC[C@@H]1[C@H](c2ccc(-c3ccccc3)cc2)[C@H]2CN(CCC(F)(F)F)CCCCN12 [Compound 21, ((8S,9R,10S)-9-([1,1′-biphenyl]-4-yl)-6-(3,3,3-trifluoropropyl)-1,6-diazabicyclo[6.2.0]decan-10-yl)methanol]	623 nM
O=C(Nc1ccccc1F)N1CCCCN2[C@H](CO)[C@H](c3ccc(C#Cc4cccnc4)cc3)[C@@H]2C1 [Compound 22, (8R,9R,10S)-N-(2-fluorophenyl)-10-(hydroxymethyl)-9-(4-(pyridin-3-ylethynyl)phenyl)-1,6-diazabicyclo[6.2.0] decane-6-carboxamide]	507 nM
COc1ccccc1NC(=O)N1CCCCN2[C@@H](CO)[C@H](c3ccc(C#CC4CCCC4)cc3)[C@@H]2C1 [Compound 23, (8R,9R,10R)-9-(4-(cyclopentylethynyl)phenyl)-10-(hydroxymethyl)-N-(2-methoxyphenyl)-1,6-diazabicyclo[6.2.0] decane-6-carboxamide]	386 nM
COc1ccc(NC(=O)N2CCCCN3[C@H](CO)[C@H](c4ccc(C#CCC(C)C)cc4)[C@@H]3C2)cc1 [Compound 24, (8R,9R,10S)-10-(hydroxymethyl)-N-(4-methoxyphenyl)-9-(4-(4-methylpent-1-yn-1-yl)phenyl)-1,6-diazabicyclo[6.2.0] decane-6-carboxamide]	418 nM
COc1ccc(NC(=O)N2CCCCN3[C@@H](CO)[C@H](c4ccc(C#Cc5ccccn5)cc4)[C@@H]3C2)cc1 [Compound 25, (8R,9R,10R)-10-(hydroxymethyl)-N-(4-methoxyphenyl)-9-(4-(pyridin-2-ylethynyl)phenyl)-1,6-diazabicyclo[6.2.0] decane-6-carboxamide]	155 nM

— patent publication US11325913B2, “Compounds and methods for the treatment of malaria” (THE BROAD INSTITUTE, INC., priority 2013, dated 2022)
